The values that follow come from patent US11931373B2, “HSP90 activator AHA1 drives production of pathological tau aggregates” (University of South Florida, priority 2017, dated 2024).

The structures appear in SMILES notation.

Assay [1] addresses T1, Aha1 and Hsp90 complexes (Homo sapiens, UniProt O95433).
T1 construct: endogenous in cells; host or cells: PC3-MM2 cells
Description: Co-immunoprecipitation of Hsp90α with Aha1 from PC3-MM2 cells. It counts as cell-based. Conditions: 10 μM, 24 hours. On the procedure: (§1) Co-immunoprecipitation. Co-immunoprecipitation of Hsp90α with Aha1 from PC3-MM2 and iHek P301L cells incubated with the indicated compounds for 24 hours were performed as previously described (Ghosh, et al. ACS Chem. Biol. 2015, 10, 577-590).

Assay [2] deals with Hsp90. Kind of assay: Luciferase refolding assay in PC3-MM2 cells. It counts as cell-based. Conditions: 2 hours; for Hsp90-mediated refolding of denatured luciferase: 0.097-100 μM; for IC50 of Hsp90-mediated luciferase refolding activity: concentrations examined 100, 25, 6.25, 1.56, 0.39 and 0.097 μM. On the procedure: Luciferase refolding assay. Compound dissolved in DMSO at the indicated concentrations or a DMSO control was evaluated in a luciferase refolding assay in PC3-MM2 cells as previously described (Hall, et al. J. Med. Chem. 2016, 59, 925-933) and dose-response curves of the luminescence signal relative to DMSO control were generated using GraphPad Prism 5.0.

The target in assay [3] is T2, binding of Aha1 to Hsp90 (Homo sapiens, UniProt O95433).
T2 construct: Immunoprecipitated Aha1 from iHEK cells treated±10 μM KU-177 for 24 hours; endogenous in cells; host or cells: iHEK-P301L cells (tetracycline-inducible P301L tau)
Description: Co-immunoprecipitation of Hsp90 with Aha1 from iHEK cells. It counts as cell-based. Conditions: 10 μM, 24 hours. On the procedure:
(§2) Cell culture and transfection. iHek-P301L cells (Ghosh, et al. ACS Med. Chem. Lett. 2016, 7, 813-818) and luciferase expressing PC3-MM2 cells (Ghosh, et al. ACS Med. Chem. Lett. 2016, 7, 813-818) were cultured in DMEM media supplemented with 10% FBS and 1% Penicillin-Streptomycin (Invitrogen). Inducible cells were incubated with 3 μg of tetracycline for 72 h. 48 h prior to harvest, transfections were performed with 2.5 μL Lipofectamine 2000 (Invitrogen) per 1 μg of DNA, which was incubated in serum-free Opti-MEM for 5 minutes before adding the mixture dropwise to the cells. KU-177 was added 24 h prior to harvest at indicated concentrations. Cells were harvested in Tsaio TBS buffer (50 mM Tris Base, 274 mM NaCl, 5 mM KCl, pH 8.0) containing protease inhibitors. Samples were prepared as previously described (Ramsden, et al. J. Neurosci. 2005, 25, 10637-10647) to obtain soluble (S1) and sarkosyl-insoluble (P3) fractions.
as §1

Assay [4] deals with T3, Recombinant human P301L tau with Hsp90 and Aha1 (Homo sapiens, UniProt O95433).
T3 construct: His tag (with TEV site) (N, cleaved yes); made in house; host or cells: E. coli (BL21) one-shot star, pet28a (tau and Aha1); Hsp90α was a gift from Dr. Johannes Buchner
T3 sequence (O95433 whole entry, stated change not applied): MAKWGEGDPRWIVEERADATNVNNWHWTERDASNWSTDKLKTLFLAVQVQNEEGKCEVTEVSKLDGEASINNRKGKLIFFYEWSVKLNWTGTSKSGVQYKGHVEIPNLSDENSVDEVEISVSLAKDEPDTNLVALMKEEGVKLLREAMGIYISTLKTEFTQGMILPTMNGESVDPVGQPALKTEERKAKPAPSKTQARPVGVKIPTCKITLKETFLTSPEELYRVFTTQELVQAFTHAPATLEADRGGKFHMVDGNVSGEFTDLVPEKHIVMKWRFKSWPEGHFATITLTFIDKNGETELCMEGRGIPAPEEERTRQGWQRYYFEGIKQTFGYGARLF
Description: Thioflavin T fluorescence assay of tau fibril formation. Conditions: 10 μM compound vs DMSO, tau with Hsp90 alone or Hsp90 and Aha1. It counts as biochemical. On the procedure: (§3) Protein Expression. Recombinant human P301L tau, Aha1, Aha1 E67K, p23, FKBP51, FKBP52, and CDC37 were expressed and purified. Hsp90α protein was a kind gift from Dr. Johannes Buchner. Recombinant human P301L tau, Aha1, Aha1 E67K, p23, FKBP51, FKBP52, and CDC37 were cloned into bacterial expression vector, pet28a with a His tag followed by a TEV sequence. Plasmids were transformed into E. coli (BL21) one-shot star cells and plated onto kanamycin-agar plates. Plates were grown at 37° C. for approximately 16 hours. 10 mL LB broth with kanamycin starter cultures were then inoculated with a colony and the starter culture grown for 8 hours. 1 L cultures were then inoculated at 1:100 dilution and grown to OD600 of 0.8. Cultures were induced with the addition of 1 mM IPTG and the incubator temperature was reduced to 16° C. Cultures were then grown for 14 hours. Cells were then pelleted at 3,500×g for 30 minutes and supernatant discarded. Pellets were resuspended in lysis buffer (20 mM Tris-HCl pH 8.0, 500 mM NaCl, 10 mM Imidazole with protease inhibitors) and frozen at −80° C. Bacterial pellets were then thawed and lysed by sonication. Lysates were then spun at 50,000×g for 1 hr. […]
Thioflavin T Fluorescence Assay. […] Fluorescence was read at 440 nm excitation and 482 nm emission in a BioTek Synergy H1 plate reader at indicated time points. […]

Assay [5] relates to recombinant P301L tau fibrils. Description: Transmission electron microscopy of tau fibrils. It counts as biochemical, human. Conditions: KU-177 vs DMSO control. As to the method:
as §3, with “hr. Next, the supernatant was purified by nickel affinity chromatography (Nickel Resin, Fisher #PI88222). Protein purity and expression was then checked by Coomassie stained SDS-PAGE.” for “hr.”

Assay [6] has as its system tau in iHEK-P301L cells. Description: Soluble and sarkosyl-insoluble tau in iHEK-P301L cells (Western blot). It counts as cell-based. To be noted: 10 μM. On the procedure: as §2
Western blot and dot blot analysis. Cell and mouse brain tissues samples were analyzed by Western blot using 4-15% SDS gradient gels (BioRad). Antibody dilutions were 1:1000 unless otherwise stated, and all secondary antibodies were used at 1:1000 (Southern Biotech). Blots were developed using ECL (Pierce) on a LAS-4000 mini imager (GE Healthcare). For dot blots, proteins were applied onto a wet nitrocellulose membrane and dried by vacuum. […]

T1 sequence (O95433 whole entry, one chain of several): as the sequence (O95433 whole entry, stated change not applied) above

For `COc1cccc(-c2cc(C(=O)Nc3cc4ccc(O[C@@H]5OC(C)(C)[C@H](OC)C(O)[C@@H]5O)c(OC)c4oc3=O)ccc2OC)c1` (stereo partly shown) [KU-174], in assay [1], the “Aha1 and Hsp90 complexes (immunoprecipitation of Aha1, Western blot)” value (shortened to “Aha1 and Hsp90 complexes”) was “inhibited”. Further, the “Hsp90-mediated refolding of denatured luciferase” value (from here on “Hsp90-mediated refolding”) in assay [2] was “inhibited”.

On to `COc1cccc(-c2cc(C(=O)Nc3cc4ccc(OC(C)=O)c(OC)c4oc3=O)ccc2OC)c1` [KU-177], for which, in assay [1], the “Aha1 and Hsp90 complexes” value was “inhibited”. For the same compound, the “binding of Aha1 to Hsp90 (immunoprecipitation of Aha1, Western blot)” value in assay [3] is listed as “inhibited the binding of Aha1 to Hsp90”. Besides, in assay [2], the “Hsp90-mediated refolding” value is listed as “did not inhibit” and the “IC50 of Hsp90-mediated luciferase refolding activity” value is listed as “higher than the range of concentrations examined here”. For the same compound, the “Recombinant P301L tau fibril formation measured by ThT fluorescence” value in assay [4] is recorded as “significantly reduce tau fibril formation”. For the same compound, in assay [5], the “tau fibril formation observed by TEM” value is on record as “robust reduction in tau fibril formation”. Also, the sarkosyl-insoluble tau entry in assay [6] (iHEK-P301L cells transfected with Aha1-WT, Aha1-E67K or empty vector) is recorded as “reduce insoluble tau”. The “soluble, phosphorylated tau” value in assay [6] (iHEK-P301L cells) is recorded as “increased soluble, phosphorylated tau”.

For `COc1cccc(-c2cc(C(=O)Nc3cc4ccc(O)c(OC)c4oc3=O)ccc2OC)c1` [KU-308], the “Aha1 and Hsp90 complexes” value in assay [1] is given as “inhibited”. Moreover, in assay [2], the “Hsp90-mediated refolding” value is “did not inhibit” and the “IC50 of Hsp90-mediated luciferase refolding activity” value is recorded as “higher than the range of concentrations examined here”.
